Measurements reported in US12527772B2, “Pharmaceutical combination comprising ponesimod” (Vanda Pharmaceuticals Inc., priority 2017, dated 2026).

Columns and labels:
Format in all cases: in vivo
[1] = test system: lymphocytes; assay: first pilot experiment, rat EAE model: hematology, lymphocyte counts; conditions: ponesimod 30 mg/kg oral q.d.; over 24 hours
Procedure: (§1) Groups of 10 rats are dosed orally starting at the day of disease induction (day 0) with different doses of teriflunomide in the range between 1 and 10 mg/kg once daily (q.d.) or with 30 mg/kg ponesimod q.d. Clinical scores are assessed on a daily basis and disease development is compared between vehicle-treated rats and rats receiving teriflunomide or ponesimod (vehicle: 0.5% Methylcellulose/0.5% Tween® 80/water). In parallel, body weights of the rats are monitored on a daily basis to follow general health. Hematology parameters, including lymphocyte counts, are measured at 3 different time points: 6 and 24 hours after the oral gavage at day 20 and at the termination of the experiment at day 21, 3 hours post dosing. Plasma samples can be taken for compound concentration determination and for the measurement of protein markers. Based on the first pilot experiment described above one dose of teriflunomide is selected for the combination efficacy experiment.

[2] = test system: acute monophasic rat EAE model; assay: combination efficacy experiment, acute monophasic rat EAE model: clinical scores; conditions: for efficacy on the clinical course of EAE (average clinical score, FIG. 1): each compound alone, ponesimod 30 mg/kg q.d., teriflunomide 1 mg/kg q.d., from day 0, 21 days study; for severity of the disease (maximal clinical score reached over the 21 days study, FIG. 2): ponesimod 30 mg/kg q.d. and/or teriflunomide 1 mg/kg q.d. from day 0
Procedure: Female Lewis rats are immunized with an emulsion of myelin basic protein (MBP) from Guinea pig in complete Freund's adjuvant. A total of 200 micrograms of MBP is injected per rat at two sites subcutaneously (right paw and base of tail). Within 10 days the rats develop signs of paralysis which will be graded on a scale from 0 to 15 assessing the tail and each limb individually according to the method originally described by Weaver A. et al., FASEB J., 2005, 19(12): 1668-1670. The disease takes an acute monophasic course and is self-remitting. Usually by day 21 clinical scores reach values below 3.0.
as §1, with “markers.” for “markers. Based on the first pilot experiment described above one dose of teriflunomide is selected for the combination efficacy experiment.”
The combination efficacy experiment is performed in the same rat EAE model as described for the first pilot experiment. It consists of four treatment groups: • 1. Vehicle (0.5% Methylcellulose/0.5% Tween® 80/water) q.d., from day 0 • 2. Teriflunomide (1 mg/kg) q.d., from day 0 • 3. Ponesimod (30 mg/kg) q.d., from day 0 • 4. Teriflunomide (1 mg/kg) q.d., from day 0+ponesimod (30 mg/kg) q.d., from day 0
In life and termination endpoints are the same as described for the first pilot experiment.
Data collected in the pilot experiment are similar to those obtained in the combination study and therefore are used to increase the monotherapy groups size in order to increase sensitivity as described by Bate S. et al., PLoS One., 2014, 9(12): e114872. […] When combined, the two compounds benefit from each other.

[3] = combination efficacy experiment, acute monophasic rat EAE model: body weight; conditions: ponesimod 30 mg/kg q.d. from day 0; over the 21 days study
Procedure: as §1, with “markers. The combination efficacy experiment is performed in the same rat EAE model as described for” for “markers. Based on”, “pilot experiment. It consists of four treatment groups: • 1. Vehicle (0.5% Methylcellulose/0.5% Tween® 80/water) q.d., from day 0 • 2. Teriflunomide (1 mg/kg) q.d., from day 0 • 3. Ponesimod (30 mg/kg) q.d., from day 0 • 4. Teriflunomide (1 mg/kg) q.d., from day 0+ponesimod (30 mg/kg) q.d., from day 0 In life and termination endpoints are the same as” for “pilot experiment”, “described” for “described above one dose of teriflunomide is selected”, “the first pilot” for “the combination efficacy”, “experiment. […]” for “experiment.”

[4] = test system: acute monophasic models of experimental autoimmune encephalomyelitis (EAE); assay: first pilot experiment, acute monophasic rat EAE model: clinical scores; conditions: female Lewis rats, teriflunomide 1 mg/kg oral q.d. from day 0
Procedure: The efficacy of teriflunomide and ponesimod in acute monophasic models of experimental autoimmune encephalomyelitis (EAE) can be determined in a pilot experiment. Female Lewis rats are immunized with an emulsion of myelin basic protein (MBP) from Guinea pig in complete Freund's adjuvant. A total of 200 micrograms of MBP is injected per rat at two sites subcutaneously (right paw and base of tail). Within 10 days the rats develop signs of paralysis which will be graded on a scale from 0 to 15 assessing the tail and each limb individually according to the method originally described by Weaver A. et al., FASEB J., 2005, 19(12): 1668-1670. The disease takes an acute monophasic course and is self-remitting. Usually by day 21 clinical scores reach values below 3.0. Groups of 10 rats are dosed orally starting at the day of disease induction (day 0) with different doses of teriflunomide in the range between 1 and 10 mg/kg once daily (q.d.) or with 30 mg/kg ponesimod q.d. Clinical scores are assessed on a daily basis and disease development is compared between vehicle-treated rats and rats receiving teriflunomide or ponesimod (vehicle: 0.5% Methylcellulose/0.5% Tween® 80/water). In parallel, body weights of the rats are monitored on a daily basis to follow general health. Hematology parameters, including lymphocyte counts, are measured at 3 different time points: 6 and 24 hours after the oral gavage at day 20 and at the termination of the experiment at day 21, 3 hours post dosing. Plasma samples can be taken for compound concentration determination and for the measurement of protein markers. Based on the first pilot experiment described above one dose of teriflunomide is selected for the combination efficacy experiment.

[5] = teriflunomide alone 1 mg/kg q.d. from day 0

Compound | reduction of lymphocytes [1] | efficacy on the clinical course of EAE (average clinical score, FIG. 1) [2] | severity of the disease (maximal clinical score reached over the 21 days study, FIG. 2) [2] | effect on clinical score during the ascending phase (FIG. 1) ([2]; ponesimod 30 mg/kg q.d. from day 0) | body weight loss (FIG. 3 and FIG. 4) [3] | disease onset [4] | efficacy on EAE scores [4] | severity of the disease [4] | disease onset (FIG. 1) [2, 5] | efficacy on EAE scores (FIG. 1 and FIG. 2) [2, 5]
CCC/N=C1\S/C(=C\c2ccc(OC[C@H](O)CO)c(Cl)c2)C(=O)N1c1ccccc1C [ponesimod, (R)-5-[3-chloro-4-(2,3-dihydroxy-propoxy)-benz[Z]ylidene]-2-([Z]-propylimino)-3-o-tolyl-thiazolidin-4-one] | partial reduction of lymphocytes | moderate efficacy | no effect | moderate effect | reduction in body weight loss |  |  |  |  | 
C/C(O)=C(\C#N)C(=O)Nc1ccc(C(F)(F)F)cc1 [teriflunomide, (Z)-2-cyano-3-hydroxy-but-2-enoic acid-(4-trifluoromethylphenyl)-amide] |  | moderate efficacy | no effect |  |  | strong delay of disease onset | partial efficacy | without affecting the severity of the disease | strong delay of disease onset | partial efficacy
